In patent US20250041214A1, “INHALABLE OR INGESTIBLE LACTIC ACID COMPOSITIONS FOR THE TREATMENT OF CHRONIC LUNG DISEASE” (Alveolus Bio, Inc., priority 2021, published 2025):
“Also recorded” adds a separate entry of the source.

Tests used:
[1] = system: Matrix Metalloproteinase-9 (MMP-9) mRNA; assay: MMP-9 mRNA in E. coli-treated HBE cells (dysbiosis model of lung epithelial cells), qRT-PCR; format: cell-based, human; conditions: 4 hours at 37° C.
Procedure: In FIG. 2, human primary epithelial (HBE) cells were seeded on a 6 well plate with 4×10^5 cells in each well. 16 hours later, the medium was changed to fresh DULBECCO'S Modified Eagle Medium/Nutrient Mixture F-12 (DMEM/F12) without antibiotic, and E. coli was added to the cells at a final concentration of 5.0×10^7 E. coli cells/ml. L(+) Lactic acid was added together with E. coli at a final lactic acid concentration of 5 mM, 10 mM, or 20 mM. The cells were incubated at 37° C. for 4 hours and then harvested with QIAZOL reagent. RNA was extracted according to the QIAZOL protocol. The level of Matrix Metalloproteinase-9 (MMP-9) mRNA was measured by quantitative real-time PCR (qRT-PCR). In FIG. 5, human bronchial epithelial (HBE) cells were seeded on a 6 well plate with 4×10^5 cells in each well. 16 hours later, the medium was changed to fresh DULBECCO'S Modified Eagle Medium/Nutrient Mixture F-12 (DMEM/F12) without antibiotic, and E. coli was added to the cells at a final concentration of 5.0×10^7 E. coli cells/ml. D(−) Lactic acid was added together with E. coli at a final lactic acid concentration of 0.25 ug/mL, 0.5 ug/mL, or 2 μg/mL. The cells were incubated at 37° C. for 4 hours and then harvested with QIAZOL reagent. RNA was extracted according to the QIAZOL protocol. The level of Matrix Metalloproteinase-9 (MMP-9) mRNA was measured by quantitative real-time PCR (qRT-PCR).

[2] = system: Matrix Metalloproteinase-9 (MMP-9) mRNA; assay: MMP-9 mRNA in Caco-2 intestinal epithelial cells inoculated with E. coli, qRT-PCR; format: cell-based, human; conditions: Caco-2 cells inoculated with E. coli; L(+) lactic acid 1.5 mM, 3 mM or 6 mM; 4 hours at 37° C.
Procedure: In FIG. 3, human intestinal epithelial cells (IECs) from the Caco-2 cell line were seeded on a 6 well plate with 4×10^5 cells in each well. 16 hours later, the medium was changed to fresh DULBECCO'S Modified Eagle Medium/Nutrient Mixture F-12 (DMEM/F12) without antibiotic, and E. coli was added to the cells at a final concentration of 5.0×10^7 E. coli cells/ml. L(+) Lactic acid was added together with E. coli at a final lactic acid concentration of 1.5 mM, 3 mM, or 6 mM. The cells were incubated at 37° C. for 4 hours and then harvested with QIAZOL reagent. RNA was extracted according to the QIAZOL protocol. The level of Matrix Metalloproteinase-9 (MMP-9) mRNA was measured by quantitative real-time PCR (qRT-PCR).

[3] = system: MMP-9 mRNA; assay: MMP-9 mRNA in A549 NSCLC adenocarcinoma cells inoculated with E. coli, real-time qPCR; format: cell-based; conditions: 0.25 μg to 4 ug L-LA, 4 hours at 37° C.
Procedure: In FIG. 4, 2×10^5 A549 cells were seeded in 500 μL growth medium per each well of a 24-well plate. Cells were treated with: (1) 2 uL PBS (control), (2) 5×10^8 E. coli cells (E. coli), (3) or 5×10*8 cells E. coli with 0.25 ug, 0.5 ug, 1 ug, 2 ug, or 4 ug L-lactic acid. The cells were incubated for 4 hours at 37° C. Cells were harvested, RNA was extracted with an RNA extraction kit, the concentration of total RNA was measured, cDNA was obtained using a High-Capacity cDNA Reverse Transcription Kit, and then a TAQMAN real-time qPCR protocol was performed on the cDNA.

[4] = pure water; cited from earlier work

C[C@@H](O)C(=O)O [D-lactic acid]
MMP-9 mRNA levels ([1]; HBE cells inoculated with E. coli, 0.25 μg to 2 ug D-LA): no statistical difference

C[C@H](O)C(=O)O [L-lactic acid]
MMP-9 mRNA levels [2]: decreased | MMP-9 mRNA levels ([1]; HBE cells treated with E. coli, L(+) lactic acid 5 mM, 10 mM or 20 mM): MMP-9 reduction; also recorded: decreased | MMP-9 mRNA levels [3]: decreased

Polyoxyethylene (20) sorbitan monooleate [polysorbate 80]
critical micelle concentration [4]: 0.012 mM
